Reference: article PMC6628293, “Rhamnose Binding Protein as an Anti-Bacterial Agent—Targeting Biofilm of Pseudomonas aeruginosa” (Marine Drugs, 2019)

Target: T1, rHPLOE (recombinant hemolymph plasma lectin)
T1 construct: gene hpl; E. coli codon-optimised synthetic gene hplOE in pET-23a(+), BL21(DE3) with chaperones (pG-KJE8); His-tag kept; HisTrap purified
Test: competitive ELISA against coated PA14 biofilm extract
Design: species or system Tachypleus tridentatus
Settings: 0.1 uM rHPLOE; 37 °C, 1 h; competitor of binding to cell-free P. aeruginosa PA14 biofilm; one-site Ki fit
Source text: competitive ELISA against coated PA14 biofilm extract on rHPLOE (recombinant hemolymph plasma lectin) | The inhibitory constant (Ki) of L-rhamnose to rHPLOE interaction with the biofilm

## C[C@@H]1OC(O)[C@H](O)[C@H](O)[C@H]1O (stereo partly drawn) [L-rhamnose]
  Ki: 98 mM
